Reference: the supplement of paper PMC10307832

Columns and labels:
Assay in all cases: relative viability (nuclei count vs DMSO), 5 days (fraction); higher = more cells survive
[1] = compound: CC(=O)Nc1cccc(-n2c(=O)n(C3CC3)c(=O)c3c(Nc4ccc(I)cc4F)n(C)c(=O)c(C)c32)c1 [Trametinib] + O=C(c1cc(Cc2n[nH]c(=O)c3ccccc23)ccc1F)N1CCN(C(=O)C2CC2)CC1 [Olaparib] (partner 8 µM)
Summary of the method: (§1)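 The day after seeding in 1536-well plates, lung cancer cell lines were treated by pin tool with a single drug, or with a fixed anchor-drug dose together with five library-drug doses (not always all listed) in √10 steps. After 5 days, a combined fix-and-stain solution (final 0.05% Triton X-100, 1% formaldehyde, 1 ug/ml Hoechst) was added. Nuclei counted on 4× images gave relative viability as treated counts over vehicle counts, reported as the median of duplicate plates.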

[2] = compound: CN1C=C(C2=CC=CC=C21)/C=C\3/C4=C(C=CC=N4)NC3=O + Cc1cc(Nc2cc(N3CCN(C)CC3)nc(Sc3ccc(NC(=O)C4CC4)cc3)n2)n[nH]1 [Tozasertib] (partner 0.1 µM)
Summary of the method: as §1

[3] = compound: CN1C=C(C2=CC=CC=C21)/C=C\3/C4=C(C=CC=N4)NC3=O + CS(=O)(=O)N1CCN(Cc2cc3nc(-c4cccc5[nH]ncc45)nc(N4CCOCC4)c3s2)CC1 [Pictilisib] (partner 1 µM)
Summary of the method: as §1

[4] = compound: CC(=O)Nc1cccc(-n2c(=O)n(C3CC3)c(=O)c3c(Nc4ccc(I)cc4F)n(C)c(=O)c(C)c32)c1 [Trametinib] + CS(=O)(=O)N1CCN(Cc2cc3nc(-c4cccc5[nH]ncc45)nc(N4CCOCC4)c3s2)CC1 [Pictilisib] (partner 1 µM)
Summary of the method: as §1

Row | Cell Line | relative viability ([1]; first compound 0.0025 µM) | relative viability ([1]; first compound 0.007906 µM) | relative viability ([1]; first compound 0.025 µM) | relative viability ([1]; first compound 0.07906 µM) | relative viability ([1]; first compound 0.25 µM) | relative viability ([2]; first compound 0.02 µM) | relative viability ([2]; first compound 0.06325 µM) | relative viability ([2]; first compound 0.2 µM) | relative viability ([2]; first compound 0.6325 µM) | relative viability ([2]; first compound 2 µM) | relative viability ([3]; first compound 0.02 µM) | relative viability ([3]; first compound 0.06325 µM) | relative viability ([3]; first compound 0.2 µM) | relative viability ([3]; first compound 0.6325 µM) | relative viability ([3]; first compound 2 µM) | relative viability ([4]; first compound 0.0025 µM) | relative viability ([4]; first compound 0.007906 µM) | relative viability ([4]; first compound 0.025 µM) | relative viability ([4]; first compound 0.07906 µM) | relative viability ([4]; first compound 0.25 µM)
1 | NCI-H2023 | 0.492 | 0.448 | 0.419 | 0.447 | 0.294 | 0.282 | 0.267 | 0.352 | 0.249 | 0.237 | 0.258 | 0.17 | 0.128 | 0.193 | 0.181 | 0.213 | 0.141 | 0.137 | 0.175 | 0.143
2 | Calu-6 | 0.589 | 0.452 | 0.214 | 0.142 | 0.129 |  |  |  |  |  | 0.841 | 0.776 | 0.9 | 0.936 | 0.897 | 0.739 | 0.45 | 0.193 | 0.136 | 0.121
3 | SW 900 | 0.838 | 0.782 | 0.669 | 0.809 | 0.518 | 0.468 | 0.531 |  | 0.452 | 0.389 |  |  |  |  |  |  |  |  |  | 
4 | HOP-62 | 0.395 | 0.377 | 0.417 | 0.376 | 0.125 | 0.31 | 0.359 | 0.412 | 0.406 | 0.422 | 0.729 | 1.05 | 0.475 | 0.627 | 0.937 | 0.597 | 0.229 | 0.128 | 0.133 | 0.0772
5 | H3255 | 0.559 | 0.533 | 0.476 | 0.461 | 0.411 | 0.739 | 0.624 | 0.847 | 0.638 | 0.866 | 0.41 | 0.453 | 0.395 | 0.501 | 0.475 | 0.436 | 0.344 | 0.334 | 0.237 | 0.206
6 | NCI-H1734 | 0.632 | 0.578 |  | 0.59 | 0.431 | 0.281 | 0.311 |  | 0.295 | 0.284 | 0.432 | 0.454 |  | 0.466 | 0.45 | 0.439 | 0.448 |  | 0.362 | 0.299
7 | SK-MES-1 | 0.841 | 0.737 | 0.546 | 0.373 | 0.245 | 0.945 | 0.749 | 0.917 | 0.874 | 0.886 | 0.338 | 0.308 | 0.346 | 0.342 | 0.302 | 0.282 | 0.223 | 0.214 | 0.171 | 0.187
8 | NCI-H1792 | 0.479 | 0.415 | 0.348 | 0.186 | 0.244 |  |  |  |  |  | 0.247 | 0.223 | 0.214 |  | 0.275 | 0.227 | 0.183 | 0.182 | 0.152 | 0.104
9 | EKVX | 0.795 | 0.66 | 0.61 | 0.472 | 0.316 | 0.297 | 0.422 | 0.402 | 0.355 | 0.38 | 0.374 | 0.384 | 0.334 | 0.345 | 0.361 | 0.363 | 0.318 | 0.228 | 0.214 | 0.193
10 | EPLC-272H | 0.628 | 0.406 | 0.332 | 0.322 | 0.173 | 0.193 | 0.276 | 0.244 |  | 0.283 | 0.294 | 0.285 |  | 0.27 | 0.304 | 0.268 | 0.221 | 0.175 | 0.174 | 0.0951
11 | NCI-H2342 | 0.404 | 0.4 | 0.327 | 0.359 | 0.399 | 0.492 | 0.437 | 0.556 | 0.438 | 0.505 |  |  |  |  |  |  |  |  |  | 
12 | IA-LM | 0.826 | 0.74 | 0.244 | 0.242 | 0.167 |  |  |  |  |  | 0.273 | 0.264 |  | 0.347 | 0.363 | 0.142 | 0.091 | 0.073 | 0.0818 | 0.0673
13 | EBC-1 | 0.745 | 0.681 | 0.543 | 0.179 | 0.195 |  |  |  |  |  | 0.242 | 0.256 | 0.283 | 0.287 | 0.309 | 0.244 | 0.204 | 0.134 | 0.137 | 0.168
14 | A549 | 0.29 | 0.27 | 0.14 | 0.211 | 0.0478 |  |  |  |  |  | 0.544 | 0.474 | 0.465 | 0.46 | 0.529 | 0.375 | 0.237 | 0.179 | 0.121 | 0.072
15 | NCI-H1563 |  |  |  |  |  |  |  |  |  |  | 0.587 | 0.618 | 0.641 | 0.747 | 0.682 | 0.624 | 0.72 | 0.652 | 0.572 | 0.536
16 | NCI-H1703 | 0.492 | 0.513 | 0.323 | 0.385 | 0.274 |  |  |  |  |  | 0.232 | 0.245 | 0.257 | 0.283 | 0.23 | 0.23 | 0.224 | 0.206 | 0.269 | 0.258
17 | NCI-H1299 | 1.04 | 1 | 0.942 | 0.832 | 0.587 |  |  |  |  |  | 0.567 | 0.811 | 0.8 | 0.824 | 0.894 | 0.475 | 0.47 | 0.32 | 0.0746 | 0.157
18 | NCI-H522 | 0.617 | 0.485 | 0.583 | 0.555 | 0.545 | 0.562 | 0.575 | 0.518 | 0.283 | 0.556 |  |  |  |  |  |  |  |  |  | 
19 | NCI-H1648 | 0.828 | 0.671 | 0.88 | 0.653 | 0.555 |  | 0.435 | 0.435 | 0.387 | 0.372 |  |  |  |  |  |  |  |  |  | 
20 | NCI-H1623 |  |  |  |  |  | 0.384 | 0.431 | 0.358 | 0.384 | 0.497 |  |  |  |  |  |  |  |  |  | 
